Reference: patent publication US8945864B2, “Method of determining 1,5-anhydroglucitol, and reagent composition for determining 1,5-anhydroglucitol” (Ikeda Food Research Co., Ltd., priority 2006, dated 2015)

These compounds were tested against T1, sorbose dehydrogenase (Sinorhizobium meliloti, UniProt Q92YU0) (assay: Substrate specificity of sorbose dehydrogenase (relative reactivity, DCIP method)). Details: not given.
Format: biochemical, Sinorhizobium sp. 97507
Procedure: One mL of a 0.1 M potassium phosphate buffer, pH 7.0, 1.0 mL of 1.0 M L-sorbose, 0.14 mL of 3 mM 2,6-dichlorophenol indophenol (DCIP), 0.2 mL of 3 mM 1-methoxy-5-methylphenazinium methyl sulfate, and 0.61 mL of water were added to a 3 mL quartz cell, and the quartz cell was set to a spectrophotometer equipped with a thermostat cell holder, and incubated at 37° C. for ten minutes. Then, 0.05 mL of the enzyme solution was added to the quartz cell, and changes in absorbance of DCIP at 600 nm (AABS600/min) was measured at 37° C. As the molar extinction coefficient of DCIP at pH 7.0 is known as 16.3 mM^−1, and the amount of enzyme that reduced 1 μmol of DCIP for one minute is defined as one unit. Following the definition, the concentration of enzyme activity was calculated based on the following equation. enzyme activity (units/mL)=(−ΔABS600/min×3.0×dilution rate)/(16.3×1.0×0.05)
Measurement conditions in the above “method of measuring enzyme activity” were suitably modified as necessary, and the optimal pH, pH stability, optimal temperature, temperature stability, substrate specificity, Km value, total molecular weight, subunit molecular weight, inhibitor, and product of the enzyme reaction were identified. The properties of the enzyme were evaluated in accordance with the following tests.
[…]. The results are shown as a relative value of each substrate with reference to the value of activity of L-sorbose as a standard.

T1 sequence (Q92YU0 entry or part of it): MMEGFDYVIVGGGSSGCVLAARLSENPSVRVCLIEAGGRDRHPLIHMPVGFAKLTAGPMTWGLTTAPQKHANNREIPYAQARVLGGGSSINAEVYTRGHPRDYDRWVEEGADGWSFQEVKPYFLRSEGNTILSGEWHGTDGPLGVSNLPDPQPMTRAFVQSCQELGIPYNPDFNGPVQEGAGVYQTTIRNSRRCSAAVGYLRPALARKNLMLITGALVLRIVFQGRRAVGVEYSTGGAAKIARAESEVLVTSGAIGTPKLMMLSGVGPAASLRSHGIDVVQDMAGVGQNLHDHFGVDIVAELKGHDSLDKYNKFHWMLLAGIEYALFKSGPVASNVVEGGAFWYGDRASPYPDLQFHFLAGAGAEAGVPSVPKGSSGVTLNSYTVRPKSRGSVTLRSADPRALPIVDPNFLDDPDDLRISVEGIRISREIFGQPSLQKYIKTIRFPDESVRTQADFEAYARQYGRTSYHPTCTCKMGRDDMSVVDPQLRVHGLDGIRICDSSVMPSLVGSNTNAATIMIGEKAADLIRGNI

| Compound | Effect of the sorbose dehydrogenase on the substrate (in words) | Relative activity (%) |
| --- | --- | --- |
| CCCCO [1-butanol] | weak effect | 1.29% |
| CC(O)C(C)O (stereo not shown) [2,3-butanediol] | little effect | 0.26% |
| CCC(C)O (stereo not shown) [2-butanol] | little effect | – |
| CCO [Ethanol] | little effect | 0% |
| CO [methanol] | little effect | – |

Same assay, conditions: substrate 333 mM (lactose 167 mM)

| Compound | Effect of the sorbose dehydrogenase on the substrate (in words) |
| --- | --- |
| OC[C@H]1OC[C@H](O)[C@@H](O)[C@@H]1O [1,5-anhydroglucitol] | strong effect |
| CCCO [1-propanol] | little effect |
| CC(C)CO [2-methyl-1-propanol] | weak effect |
| CCCC(C)O (stereo not shown) [2-pentanol] | little effect |
| CC(C)O [2-propanol] | little effect |
| C=CCO [Allyl alcohol] | weak effect |
| O=C[C@H](O)[C@@H](O)[C@@H](O)[C@H](O)CO [D-(+)-galactose] | weak effect |
| O=C[C@H](O)[C@@H](O)[C@H](O)[C@H](O)CO [D-(+)-glucose] | weak effect |
| O=C[C@@H](O)[C@@H](O)[C@H](O)[C@H](O)CO [D-(+)-mannose] | little effect |
| O=C(CO)[C@@H](O)[C@H](O)[C@H](O)CO [D-(−)-fructose] | little effect |
| O=C(CO)[C@H](O)[C@@H](O)[C@H](O)CO [D-(−)-sorbose] | weak effect |
| OC[C@H]1O[C@@H](O[C@H]2[C@H](O)[C@@H](O)[C@H](O)O[C@@H]2CO)[C@H](O)[C@@H](O)[C@@H]1O [D-cellobiose] | little effect |
| OC[C@@H](O)[C@@H](O)[C@H](O)[C@H](O)CO [D-mannitol] | little effect |
| OC[C@H]1O[C@H](OC[C@H]2O[C@H](O[C@]3(CO)O[C@H](CO)[C@@H](O)[C@@H]3O)[C@H](O)[C@@H](O)[C@@H]2O)[C@H](O)[C@@H](O)[C@H]1O [D-raffinose] | little effect |
| O=C[C@H](O)[C@H](O)[C@H](O)CO [D-ribose] | little effect |
| OC[C@@H](O)[C@@H](O)[C@H](O)[C@@H](O)CO [D-sorbitol] | little effect |
| OC[C@H]1O[C@H](O[C@H]2O[C@H](CO)[C@@H](O)[C@H](O)[C@H]2O)[C@H](O)[C@@H](O)[C@@H]1O [D-trehalose] | little effect |
| O=C[C@H](O)[C@@H](O)[C@H](O)CO [D-xylose] | little effect |
| OCC(O)CO [Glycerol] | little effect |
| O=C[C@H](O)[C@@H](O)[C@@H](O)CO [L-arabinose] | little effect |
| C[C@H](O)[C@H](O)[C@@H](O)[C@@H](O)C=O [L-rhamnose] | little effect |
| OC[C@H]1O[C@@H](O[C@H]2[C@H](O)[C@@H](O)C(O)O[C@@H]2CO)[C@H](O)[C@@H](O)[C@H]1O (stereo partly shown) [Lactose] | little effect |
| OC[C@H]1O[C@H](O[C@H]2[C@H](O)[C@@H](O)[C@H](O)O[C@@H]2CO)[C@H](O)[C@@H](O)[C@@H]1O [Maltose] | little effect |
| OC[C@@H](O)[C@H](O)[C@@H](O)CO [Xylitol] | little effect |
| O[C@H]1[C@H](O)[C@@H](O)[C@H](O)[C@@H](O)[C@H]1O [inositol] | little effect |
| OC[C@@H](O)[C@@H](O)CO [meso-erythritol] | little effect |
| CC(O)CO (stereo not shown) [propylene glycol] | little effect |
| OC[C@H]1O[C@@](CO)(O[C@H]2O[C@H](CO)[C@@H](O)[C@H](O)[C@H]2O)[C@@H](O)[C@@H]1O [sucrose] | little effect |

Same assay, conditions: substrate final concentration 167 mM (lactose); […]

| Compound | Relative activity (%) |
| --- | --- |
| OC[C@H]1O[C@@H](O[C@H]2[C@H](O)[C@@H](O)C(O)O[C@@H]2CO)[C@H](O)[C@@H](O)[C@H]1O (stereo partly shown) [Lactose] | 0.71% |

Same assay, conditions: substrate final concentration 333 mM; […]

| Compound | Relative activity (%) |
| --- | --- |
| C=CCO [Allyl alcohol] | 3.80% |
| O=C[C@H](O)[C@@H](O)[C@@H](O)[C@H](O)CO [D-(+)-galactose] | 1.69% |
| O=C[C@H](O)[C@@H](O)[C@H](O)[C@H](O)CO [D-(+)-glucose] | 1.22% |
| O=C[C@@H](O)[C@@H](O)[C@H](O)[C@H](O)CO [D-(+)-mannose] | 0.15% |
| O=C(CO)[C@@H](O)[C@H](O)[C@H](O)CO [D-(−)-fructose] | 0% |
| O=C(CO)[C@H](O)[C@@H](O)[C@H](O)CO [D-(−)-sorbose] | 2.96% |
| OCC(O)CO [Glycerol] | 0% |
| OC[C@H]1O[C@H](O[C@H]2[C@H](O)[C@@H](O)[C@H](O)O[C@@H]2CO)[C@H](O)[C@@H](O)[C@@H]1O [Maltose] | 0% |

Same assay, conditions: substrate final concentration 333 mM; relative to activity of L-sorbose as standard (100)

| Compound | Relative activity (%) |
| --- | --- |
| OC[C@H]1OC[C@H](O)[C@@H](O)[C@@H]1O [1,5-anhydroglucitol] | 79.1% |
| CCCO [1-propanol] | 0.75% |
| CC(C)CO [2-methyl-1-propanol] | 2.06% |
| CC(C)O [2-propanol] | 0.39% |
| OC[C@@H](O)[C@H](O)[C@@H](O)CO [Xylitol] | 0.89% |

Each compound was assayed against T1, sorbose dehydrogenase (assay: Inhibitor test: additive in the reaction solution for the activity measurement). Details: not given.
Format: biochemical, Sinorhizobium sp. 97507

| Compound | Relative activity (%) | Inhibition of the sorbose dehydrogenase (in words) |
| --- | --- | --- |
| Oc1cccc2cccnc12 [8-quinolinol] | 106% | – |
| NN=C(N)N.O=S(=O)(O)O [Aminoguanidine sulfate] | 91% | – |
| [Ca+2].[Cl-].[Cl-] [CaCl2] | 92% | – |
| [Cl][Cd][Cl] [CdCl2] | 91% | – |
| O=C([O-])CN(CCN(CC(=O)O)CC(=O)O)CC(=O)[O-].[Na+].[Na+] [EDTA-2Na] | 102% | – |
| OO [H2O2] | 98% | – |
| [Cl-].[Cl-].[Mg+2] [MgCl2] | 93% | – |
| [Cl][Mn][Cl] [MnCl2] | 11% | remarkably inhibited |
| [Cl-].[Na+] [NaCl] | 85% | – |
| [N-]=[N+]=[N-].[Na+] [NaN3] | 115% | – |
| [Cl][Ni][Cl] [NiCl2] | 80% | – |
| [Cl][Pb][Cl] [PbCl2] | 83% | – |
| CoCl2 | 86% | – |

Same assay, conditions: additive final concentration 0.5 mM; control without additive = 100%

| Compound | Relative activity (%) |
| --- | --- |
| [Cl][Sn][Cl] [SnCl2] | 86% |

Same assay, conditions: additive final concentration 1.0 mM; control without additive = 100%

| Compound | Relative activity (%) |
| --- | --- |
| 2-(p-)nitrobenzoic acid | 75% |
| O=C(O)CC(O)C(=O)O (racemic) [DL-malic acid] | 85% |
| O=C(O)C(O)C(O)C(=O)O (racemic) [DL-tartaric acid] | 86% |
| [Cl][Al]([Cl])[Cl] [AlCl3] | 109% |
| [Ba+2].[Cl-].[Cl-] [BaCl2] | 80% |
| [Cl][Cu][Cl] [CuCl2] | 0% |
| N[C@@H]1CONC1=O [D-cycloserine] | 90% |
| [Cl][Fe]([Cl])[Cl] [FeCl3] | 89% |
| [Cl][Hg][Cl] [HgCl2] | 0% |
| [Cl-].[Li+] [LiCl] | 98% |
| NC(N)=O [Urea] | 92% |
| [Cl-].[Cl-].[Zn+2] [ZnCl2] | 98% |
| O=C(O)C(O)C(O)C(=O)O (stereo not drawn) [meso-tartaric acid] | 94% |
| Acriflavin | 66% |
| Triton X-100 | 39% |

Same assay, conditions: additive final concentration 1.0 mM; control without additive = 100%; read-out: Relative activity (%)

| Compound | activity at 1000 µM |
| --- | --- |
| c1cnc2c(c1)ccc1cccnc12 [1,10-phenanthroline] | 77% |
| c1ccc(-c2ccccn2)nc1 [2,2′-bipyridine] | 88% |
| CCN1C(=O)C=CC1=O [N-ethylmaleimide] | 88% |
| O=S(=O)(O)c1cc(O)c(O)c(S(=O)(=O)O)c1 [Tiron] | 89% |

Same assay, conditions: heavy metal ions, 1 mM

| Compound | Inhibition of the sorbose dehydrogenase (in words) |
| --- | --- |
| [Cl][Cu][Cl] [CuCl2] | remarkably inhibited |
| [Cl][Hg][Cl] [HgCl2] | remarkably inhibited |

Same assay, conditions: read-out: Relative activity (%)

| Compound | activity at 1000 µM |
| --- | --- |
| O=C(O)c1ccccc1 [Benzoic acid] | 101% |
| O=C(O)CC(O)(CC(=O)O)C(=O)O [Citric acid] | 86% |
| O=C(O)/C=C/C(=O)O [Fumaric acid] | 99% |
| O=C(O)CI [Iodoacetic acid] | 83% |
| O=C(O)/C=C\C(=O)O [Maleic acid] | 82% |
